Laboratory results reported in PMC3695085, “Screening and Improving the Recombinant Nitrilases and Application in Biotransformation of Iminodiacetonitrile to Iminodiacetic Acid” (PLoS ONE, 2013).

How the values were obtained:
Format in all cases: biochemical
GpN = biological target: T1, GpN (Aeribacillus pallidus, UniProt Q0PIV8); test: GC-FID of ADPN consumed; conditions: pH […] potassium phosphate, […] °C, […] min
T1 construct: full-length, pET-28b(+), His-tag (Ni-NTA), E. coli BL21(DE3)
T1 sequence (Q0PIV8 1-323): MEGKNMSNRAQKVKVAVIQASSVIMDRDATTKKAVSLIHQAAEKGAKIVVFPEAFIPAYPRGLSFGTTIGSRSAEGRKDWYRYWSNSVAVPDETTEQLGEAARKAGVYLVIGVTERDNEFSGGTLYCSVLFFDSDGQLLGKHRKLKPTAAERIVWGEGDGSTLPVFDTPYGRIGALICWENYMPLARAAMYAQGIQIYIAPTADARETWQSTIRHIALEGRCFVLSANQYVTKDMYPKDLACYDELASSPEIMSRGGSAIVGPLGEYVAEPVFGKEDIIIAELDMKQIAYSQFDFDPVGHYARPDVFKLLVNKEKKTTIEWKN

ApN = biological target: T2, ApN (Arthrobacter pascens, UniProt E1CJF8); test: GC-FID of ADPN consumed; conditions: 50 mM ADPN, pH 7.5, 50 mM potassium phosphate, 35 °C, 30 min
T2 construct: gene inhB; full-length, pET-28b(+), His-tag (Ni-NTA), E. coli BL21(DE3)
T2 sequence (E1CJF8 1-359): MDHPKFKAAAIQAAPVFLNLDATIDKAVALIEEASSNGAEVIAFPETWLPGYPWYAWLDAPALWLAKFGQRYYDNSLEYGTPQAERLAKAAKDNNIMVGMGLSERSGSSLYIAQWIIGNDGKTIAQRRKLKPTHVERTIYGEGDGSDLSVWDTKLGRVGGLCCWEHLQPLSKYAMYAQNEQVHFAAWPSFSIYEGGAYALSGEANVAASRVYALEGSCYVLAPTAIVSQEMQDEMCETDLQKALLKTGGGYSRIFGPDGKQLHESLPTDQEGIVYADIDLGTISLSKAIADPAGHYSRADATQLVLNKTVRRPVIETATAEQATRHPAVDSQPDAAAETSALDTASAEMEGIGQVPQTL

RjN = biological target: T3, RjN (Rhodococcus rhodochrous, UniProt Q03217); test: GC-FID of ADPN consumed; conditions: 50 mM ADPN, pH 7.5, 50 mM potassium phosphate, 35 °C, 30 min
T3 construct: gene nitA; full-length, pET-28b(+), His-tag (Ni-NTA), E. coli BL21(DE3)
T3 sequence (Q03217 1-366 limits assumed): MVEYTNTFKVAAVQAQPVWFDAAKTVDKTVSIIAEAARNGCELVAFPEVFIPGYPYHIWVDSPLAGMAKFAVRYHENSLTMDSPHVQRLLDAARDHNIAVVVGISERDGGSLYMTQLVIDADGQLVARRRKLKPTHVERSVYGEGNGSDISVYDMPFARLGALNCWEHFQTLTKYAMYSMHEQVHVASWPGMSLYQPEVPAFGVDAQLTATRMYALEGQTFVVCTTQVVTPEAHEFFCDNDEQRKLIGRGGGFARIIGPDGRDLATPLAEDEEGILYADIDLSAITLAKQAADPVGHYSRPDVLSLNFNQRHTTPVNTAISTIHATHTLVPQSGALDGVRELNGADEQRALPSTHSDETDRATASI

TpN = biological target: T4, TpN (Thalassiosira pseudonana, UniProt B8C1M9); test: GC-FID of ADPN consumed; conditions: 50 mM ADPN, pH 7.5, 50 mM potassium phosphate, 35 °C, 30 min
T4 construct: gene NIT2; full-length, pET-28b(+), His-tag (Ni-NTA), E. coli BL21(DE3)

AcN = biological target: T5, AcN (Acidovorax facilis, UniProt Q1W2L4); test: initial velocity, HPLC, Michaelis-Menten fit; conditions: pH 7.5, 50 mM potassium phosphate, 35 °C; unit printed as mM^−1 (mM meant); 10.5–262.5 mM substrate
T5 construct: gene nitA; full-length, pET-28b(+), His-tag (Ni-NTA), E. coli BL21(DE3); synthesised gene
Source text: initial velocity, HPLC, Michaelis-Menten fit on AcN

SMILES | GC-FID of ADPN consumed (GpN) | GC-FID of ADPN consumed (ApN) | GC-FID of ADPN consumed (RjN) | GC-FID of ADPN consumed (TpN) | Km mM^-1 (AcN) [mM⁻¹]
N#CCCCCC#N [adiponitrile] | All nitrilases demonstrated ADPN hydrolysis activity | All nitrilases demonstrated ADPN hydrolysis activity | All nitrilases demonstrated ADPN hydrolysis activity | All nitrilases demonstrated ADPN hydrolysis activity | –
N#CCNCC#N [iminodiacetonitrile] | – | – | – | – | 0.76 ± 0.02
